Measurements taken from BindingDB's records for doi:10.1021/ml300038t (2012).

Molecular target: T1, 4,4'-diapophytoene synthase (Staphylococcus aureus, UniProt A9JQL9)
T1 sequence (A9JQL9 whole entry): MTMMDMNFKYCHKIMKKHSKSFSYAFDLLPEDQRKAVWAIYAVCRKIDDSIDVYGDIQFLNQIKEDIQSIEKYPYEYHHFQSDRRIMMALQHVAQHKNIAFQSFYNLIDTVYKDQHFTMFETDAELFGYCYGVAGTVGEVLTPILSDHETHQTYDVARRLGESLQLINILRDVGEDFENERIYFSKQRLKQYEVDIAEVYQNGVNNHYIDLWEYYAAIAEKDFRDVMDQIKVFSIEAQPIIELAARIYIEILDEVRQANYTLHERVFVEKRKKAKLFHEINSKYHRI
Experiment: Inhibition of Staphylococcus aureus His6-tagged CrtM expressed in Escherichia coli BL21(DE3) using Farnesyl pyrophosphate as substrate incubated for 30 mins prior to substrate addition by continuous spectrophotometric assay

IC50 [µM] | Compound
> 300 | CCCCCCOc1cccc(CCCNC(=O)CC(=O)C(=O)O)c1
> 300 | CCCCCCCCOc1ccc(C(=O)CC(=O)C(=O)O)cc1
